Results from paper PMC4933591 (Bioconjugate chemistry, 2015).
Non-standard residues stand in square brackets, D forms with d. Residues, ends and D or L forms follow the SMILES beside them. Aha = [N-]=[N+]=NCC[C@H](N)C(=O)O

Legend:
GLP-1R = target: T1, GLP-1R (Mus musculus, UniProt O35659); test: In vitro receptor binding assay using NIT-1 cells
T1 sequence (O35659 22-463): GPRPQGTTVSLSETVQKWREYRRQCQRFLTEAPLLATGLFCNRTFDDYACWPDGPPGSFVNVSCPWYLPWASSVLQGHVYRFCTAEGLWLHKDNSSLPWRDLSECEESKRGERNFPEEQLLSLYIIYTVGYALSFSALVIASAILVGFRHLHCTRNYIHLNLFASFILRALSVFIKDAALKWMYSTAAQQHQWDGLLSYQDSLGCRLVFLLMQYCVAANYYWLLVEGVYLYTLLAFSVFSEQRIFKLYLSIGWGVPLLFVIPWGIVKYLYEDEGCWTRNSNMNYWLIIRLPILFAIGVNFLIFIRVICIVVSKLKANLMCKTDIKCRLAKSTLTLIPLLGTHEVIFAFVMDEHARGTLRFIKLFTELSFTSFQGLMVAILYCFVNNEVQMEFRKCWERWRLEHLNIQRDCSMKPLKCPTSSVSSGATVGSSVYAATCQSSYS

[1] = Aggregation observed during experiments; type: physicochemical; conditions: lower concentrations during experiments

Kd (GLP-1R): 5.6 nM | half-life slower than wild-type GLP-1 (trypsin): 1 to 2 orders of magnitude
SMILES: CC[C@H](C)[C@H](NC(=O)[C@H](Cc1ccccc1)NC(=O)[C@H](CCN=[N+]=[N-])NC(=O)[C@H](CCCCN)NC(=O)[C@H](C)NC(=O)[C@H](C)NC(=O)[C@H](CCC(N)=O)NC(=O)CNC(=O)[C@H](CCC(=O)O)NC(=O)[C@H](CCN=[N+]=[N-])NC(=O)[C@H](Cc1ccc(O)cc1)NC(=O)[C@H](CO)NC(=O)[C@H](CO)NC(=O)[C@@H](NC(=O)[C@H](CC(=O)O)NC(=O)[C@H](CO)NC(=O)[C@@H](NC(=O)[C@H](Cc1ccccc1)NC(=O)[C@@H](NC(=O)CNC(=O)[C@H](CCC(=O)O)NC(=O)[C@H](C)NC(=O)[C@@H](N)Cc1c[nH]cn1)[C@@H](C)O)[C@@H](C)O)C(C)C)C(=O)N[C@@H](C)C(=O)N[C@@H](Cc1c[nH]c2ccccc12)C(=O)N[C@@H](CC(C)C)C(=O)N[C@H](C(=O)N[C@@H](CCCCN)C(=O)NCC(=O)N[C@@H](CCCNC(=N)N)C(N)=O)C(C)C [double mutant GLP-1] (H-HAEGTFTSDVSSY[Aha]EGQAAK[Aha]FIAWLVKGR-NH2)
aggregation [1]: no aggregation was detected at lower concentrations
